# Earlier results in patent publication US20240009325A1 (PriZm, LLC, priority 2022, published 2024).
# “Also recorded” adds a separate entry of the source.
# Experiments:
# animal models = conditions: mice not neurologically affected; cited from earlier work
# mice deficient in MCT8 = conditions: cited from earlier work; for cell entry in absence of MCT8: Mct8 deficient mice
# MCT8 deficient children = conditions: cited from earlier work; for high blood / serum T3 / neuropsychomotor deficit / neurological symptoms: MCT8 deficient patients
# D1 = conditions: cited from earlier work
SMILES,peripheral and central abnormalities (animal models),suppressive effect on TSH (mice deficient in MCT8; MCT8 deficient vs normal mice),cell entry in absence of MCT8 (mice deficient in MCT8),"hypermetabolism and nutrition (MCT8 deficient children; 4 MCT8 deficient children, compassionate basis)",high blood / serum T3 (MCT8 deficient children),neuropsychomotor deficit / neurological symptoms (MCT8 deficient children),D1 (D1),"T4 serum levels (MCT8 deficient children; clinical trial, Groeneweg et al. 2019)"
"O=C(O)CCc1cc(I)c(Oc2ccc(O)cc2)c(I)c1 [DITPA, 3,5-diiodothyropropionic acid]",able to restore some,equal suppressive effect,enter cells independent of MCT8,ameliorating,reduction and normalization; also recorded: reduced,not the neuropsychomotor deficit; also recorded: no evidence for improvement,,
"O=C(O)Cc1cc(I)c(Oc2ccc(O)c(I)c2)c(I)c1 [TRIAC, triiodothyroacetic acid]",able to restore some,,enter cells independent of MCT8,,reduced,no evidence for improvement,increases,significantly reduce
Cc1cc(OCC(=O)O)cc(C)c1Cc1ccc(O)c(C(C)C)c1 [Sobetirome],able to restore some,,,,,,,
O=C(O)Cc1cc(I)c(Oc2cc(I)c(O)c(I)c2)c(I)c1 [TETRAC],able to restore some,,,,,,,
